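GI50 is the concentration that inhibits growth by half. TGI denotes the concentration required for complete inhibition of growth.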
Tests used:
Test in all cases: NCI anticancer screen, dose series, 384-well format; in the data active means GI50 below about 0.43 µM; inactive means the rest
[1] = tested on: IGROV1 ovarian
[2] = tested on: HL-60(TB) leukemia
[3] = tested on: U251 glioblastoma
[4] = tested on: HOP-62 NSCLC
[5] = tested on: HCC-2998 colon
[6] = tested on: NCI/ADR-RES ovarian
[7] = tested on: MCF7 breast
[8] = tested on: NCI-H226 lung
[9] = tested on: NCI-H522 lung
[10] = tested on: SK-MEL-28 melanoma
[11] = tested on: SNB-75 CNS
[12] = tested on: SF-539 CNS
[13] = tested on: TK-10 renal
[14] = tested on: SN12C renal
[15] = tested on: A498 renal
[16] = tested on: COLO 205 colon
[17] = tested on: HCT-15 colon
[18] = tested on: RPMI-8226 leukemia
[19] = tested on: OVCAR-4 ovarian
[20] = tested on: EKVX NSCLC
[21] = tested on: SK-MEL-2 melanoma
[22] = tested on: 786-0 renal
[23] = tested on: SW-620 colon
[24] = tested on: OVCAR-8 ovarian
[25] = tested on: CCRF-CEM leukemia
[26] = tested on: OVCAR-3 ovarian
[27] = tested on: PC-3 prostate
[28] = tested on: CAKI-1 renal
[29] = tested on: MDA-MB-231 breast
[30] = tested on: HT29 colon
[31] = tested on: HS 578T breast
[32] = tested on: SF-268 CNS
[33] = tested on: A549 NSCLC
[34] = tested on: DU-145 prostate
[35] = tested on: UACC-257 melanoma
[36] = tested on: UACC-62 melanoma
[37] = tested on: KM12 colon
[38] = tested on: MALME-3M melanoma
[39] = tested on: MDA-MB-435 melanoma
[40] = tested on: SK-MEL-5 melanoma
[41] = tested on: M14 melanoma
[42] = tested on: RXF 393 renal
[43] = tested on: MOLT-4 leukemia
[44] = tested on: ACHN renal
[45] = tested on: OVCAR-5 ovarian
[46] = tested on: HOP-92 NSCLC
[47] = tested on: SF-295 CNS
[48] = tested on: SR leukemia
[49] = tested on: NCI-H460 NSCLC
[50] = tested on: BT-549 breast
[51] = tested on: MDA-MB-468 breast
[52] = tested on: NCI-H322M lung
[53] = tested on: T-47D breast
[54] = tested on: SNB-19 CNS
[55] = tested on: NCI-H23 lung
[56] = tested on: SK-OV-3 ovarian

O=c1[nH]c(-c2ccc(C(F)(F)F)cc2)nc2c1CSCC2
53 µM: TGI [51]
inactive: GI50 [1] > 100 µM | GI50 [2] > 100 µM | GI50 [3] > 100 µM | GI50 [4] 79.5 µM | GI50 [5] > 100 µM | GI50 [6] > 100 µM | GI50 [7] > 100 µM | GI50 [8] 13.3 µM | GI50 [9] 28.8 µM | GI50 [10] > 100 µM | GI50 [11] 24.5 µM | GI50 [12] > 100 µM | GI50 [13] > 100 µM | GI50 [14] > 100 µM | GI50 [15] 95.7 µM | GI50 [16] > 100 µM | GI50 [17] > 100 µM | GI50 [18] 78.3 µM | GI50 [19] 0.818 µM | GI50 [20] 24 µM | GI50 [21] 72.9 µM | GI50 [22] > 100 µM | GI50 [23] > 100 µM | GI50 [24] > 100 µM | GI50 [25] 88.6 µM | GI50 [26] 13.5 µM | GI50 [27] > 100 µM | GI50 [28] 3.83 µM | GI50 [29] > 100 µM | GI50 [30] > 100 µM | GI50 [31] > 100 µM | GI50 [32] 98.9 µM | GI50 [33] > 100 µM | GI50 [34] > 100 µM | GI50 [35] > 100 µM | GI50 [36] > 100 µM | GI50 [37] > 100 µM | GI50 [38] 25 µM | GI50 [39] > 100 µM | GI50 [40] 52.5 µM | GI50 [41] > 100 µM | GI50 [42] 13.5 µM | GI50 [43] 68.7 µM | GI50 [44] > 100 µM | GI50 [45] > 100 µM | GI50 [46] > 100 µM | GI50 [47] > 100 µM | GI50 [48] > 100 µM | GI50 [49] > 100 µM | GI50 [50] 30.5 µM | GI50 [51] 7.03 µM | GI50 [52] > 100 µM | GI50 [53] > 100 µM | GI50 [54] > 100 µM | GI50 [55] 25.7 µM | GI50 [56] 14.7 µM
> 100 µM: TGI [1] | TGI [2] | TGI [3] | TGI [4] | TGI [5] | TGI [6] | TGI [7] | TGI [8] | TGI [9] | TGI [10] | TGI [11] | TGI [12] | TGI [13] | TGI [14] | TGI [15] | TGI [16] | TGI [17] | TGI [18] | TGI [19] | TGI [20] | TGI [21] | TGI [22] | TGI [23] | TGI [24] | TGI [25] | TGI [26] | TGI [27] | TGI [28] | TGI [29] | TGI [30] | TGI [31] | TGI [32] | TGI [33] | TGI [34] | TGI [35] | TGI [36] | TGI [37] | TGI [38] | TGI [39] | TGI [40] | TGI [41] | TGI [42] | TGI [43] | TGI [44] | TGI [45] | TGI [46] | TGI [47] | TGI [48] | TGI [49] | TGI [50] | TGI [52] | TGI [53] | TGI [54] | TGI [55] | TGI [56]

Source: PubChem BioAssay (NCI)
